In PMC10031131, “Design, synthesis and evaluation of a series of potential prodrugs of a Bruton’s tyrosine kinase (BTK) inhibitor” (Frontiers in Pharmacology, 2023):
pIC50: −log10 of the molar value. Converted amounts (≈) assume the structure as drawn. Read-outs that look alike come from different tables or passages of the source.

Assays:
BTK [1] = target: T1, BTK (Homo sapiens, UniProt Q06187); details: Figure 2; ref Kuglstatter et al., 2011; cited from earlier work
T1 construct: purchased Carna Biosciences

[2] = set-up: method as in Li et al., 2014; details: FaSSIF (Fasted State Simulated Intestinal Fluid, pH 6.5) medium; ref Li et al., 2014; cited from earlier work
[3] = set-up: method as in Li et al., 2014; details: ref Li et al., 2014; cited from earlier work
[4] = Thermodynamic solubility determination assay; format: physicochemical; details: Britton-Robinson buffer (pH 6.5); for solubility thermodynamic: 25 °C, aqueous buffer, thermodynamic from solid, average of two measurements, read-out: S, pH 6.5 (thermodynamic solubility)
Description: Prior to mixing with the appropriate medium, the test chemical was accurately weighed into an appropriately sized screw-capped glass vial. The generated slurry was sonicated at room temperature for 20 min and at 50°C for 15 min, and then agitated at room temperature for at least two days before the crystallinity of the remaining solid was examined using a polarized light microscope. If crystallinity was not observed, more time for equilibration was allowed. The slurry was aliquoted into 1.5 mL centrifuge tubes on the day of analysis and centrifuged at 15,000 rpm for 20 min at 25°C. The supernatant’s concentration was determined by UV-vis (YOKE, T-U7S).

[5] = Chemical stability in DMSO or buffer by HPLC; format: physicochemical; details: HPLC analysis of in vitro stability after 24 h at room temperature
BTK^C481S = test system: BTK^C481S; set-up: method as in Gui et al., 2019; details: Figure 2; ref Gui et al., 2019; cited from earlier work
BTK [6] = target: T1, BTK; test: Cell-free kinase enzymology assay (HTRF KinEase); format: biochemical
Description: FIGURE 4 (A) Enzymatic activities of parent 4 and prodrugs 5a-c for BTK. Kinase enzymology assays were carried out in accordance with the protocols described in the HTRF KinEase assays. (B) Time-dependent plasma stability assay.
The kinase (BTK) was acquired from Carna Biosciences. Kinase acitivity assays were carried out based on Cisbio Bioassays’ HTRF® technology. At room temperature, kinase and substrate were combined with compounds in varied concentrations, followed by adding ATP to activate the enzymatic reactions. EDTA solution was added to stop the reactions after 1 h, followed by the addition of streptavidin XL665 conjugates and anti-phosphotyrosine antibodies. The mixtures were incubated for an additional 1 h at room temperature before reading on a plate reader (EnVision®, Perkin Elmer). GraphPad Prism was used to analyze the data.

[7] = Human plasma stability assay; format: in vitro ADME
Description: (§1) The in vitro stability in human plasma for the test compounds was investigated using procaine as the reference compound. The frozen human plasma was quickly thawed at 37°C. The spiking solution was made by combining 10 µL of a 10 mM compound stock solution with 990 µL of DMSO. The plasma and spiking solution were pre-warmed at 37°C for 5 min. Then 7 µL of the pre-warmed spiking solution was added into the 693 µL plasma evenly. The tests were carried out in duplicate in a 37°C shaking water bath. At 0, 5, 15, 30, 60, and 120 min, 100 µL samples were collected and added to a 400 µL solution containing an internal standard (IS). After quenching, the samples were vortexed for 5 min (600 rpm) and then centrifuged at 4,000 rpm for 20 min. LC-MS was used to analyze the clear supernatants. The values are the mean of two separate experiments.
as §1, with “at 37 °C.” for “at 37°C.”, “at 37 ℃” for “at 37°C”, “a 37 °C” for “a 37°C”

[8] = DMSO, read-out: DMSO (% remaining)
[9] = buffer pH 7.4, read-out: Buffer, pH 7.4 (% remaining)

T1 sequence (Q06187 whole entry): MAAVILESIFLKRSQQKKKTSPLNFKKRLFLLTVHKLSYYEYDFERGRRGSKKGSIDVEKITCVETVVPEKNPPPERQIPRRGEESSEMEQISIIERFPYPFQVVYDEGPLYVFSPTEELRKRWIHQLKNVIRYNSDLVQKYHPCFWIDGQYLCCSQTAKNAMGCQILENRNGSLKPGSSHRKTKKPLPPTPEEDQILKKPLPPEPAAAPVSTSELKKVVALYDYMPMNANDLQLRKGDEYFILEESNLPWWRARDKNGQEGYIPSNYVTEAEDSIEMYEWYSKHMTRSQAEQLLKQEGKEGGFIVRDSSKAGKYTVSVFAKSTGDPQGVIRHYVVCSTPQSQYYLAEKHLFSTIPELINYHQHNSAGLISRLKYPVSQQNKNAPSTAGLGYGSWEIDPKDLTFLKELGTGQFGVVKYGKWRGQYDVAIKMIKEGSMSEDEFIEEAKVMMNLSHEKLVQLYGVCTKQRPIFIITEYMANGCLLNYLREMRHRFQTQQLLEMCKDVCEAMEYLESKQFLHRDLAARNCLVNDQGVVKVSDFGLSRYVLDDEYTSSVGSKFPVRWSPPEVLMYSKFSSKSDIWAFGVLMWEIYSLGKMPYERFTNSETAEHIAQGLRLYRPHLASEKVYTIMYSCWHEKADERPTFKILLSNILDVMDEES

SMILES | solubility thermodynamic [4] | remaining at 24 h [5, 8] | pIC50 (BTK [6]) | remaining at 24 h [5, 9] | fold lower inhibitory potential for BTK compared to parent 4 (BTK [6]) | also measured
Cc1ccc(NC(=O)/C=C/c2ccccc2)cc1C(=O)Nc1cnc2[nH]c(-c3ccccc3)nc2c1 [Compound 1] | – | – | – | – | – | pIC50 (BTK [1]): 5.25
C=CC(=O)Nc1cccc(Nc2ncc(NC(=O)c3cc(NC(=O)c4cccc(C(F)(F)F)c4)ccc3C)cn2)c1 [Compound 2, reference compound] | 2 µM (≈ 1.12 µg/mL) | 100% | – | – | – | solubility in FaSSIF [2]: 7.02 µM (≈ 3.93 µg/mL); bioavailability (F%) [3]: 0.9%
Cc1cc(Nc2ncc3c(n2)N(C)CN(c2cc(NC(=O)c4cccc(C(F)(F)F)c4)ccc2C)C3)n(C)n1 [Compound 3] | – | – | – | – | – | pIC50 (BTK^C481S): 7.96
CCN(CC)CCOC(=O)c1ccc(N)cc1 [Procaine, reference compound] | – | – | – | – | – | Analyte Peak Area ([7]; human plasma, 37°C, time 15 min, duplicates): BLOD; Analyte Peak Area ([7]; human plasma, 37°C, time 30 min, duplicates): BLOD; Analyte Peak Area ([7]; human plasma, 37°C, time 60 min, duplicates): BLOD; Analyte Peak Area ([7]; human plasma, 37°C, time 120 min, duplicates): BLOD

More lines, main results first:

solubility thermodynamic [4] | remaining at 24 h [5, 8] | pIC50 (BTK [6]) | remaining at 24 h [5, 9] | fold lower inhibitory potential for BTK compared to parent 4 (BTK [6]) | SMILES | also measured
6.6 µM (≈ 3.73 µg/mL) | 100% | 7.85 | 100% | – | CC(=O)Nc1cc(Nc2ncc(NC(=O)c3cc(NC(=O)c4cccc(C(F)(F)F)c4)ccc3C)cn2)ccc1O [Compound 4] | –
88 µM (≈ 62 µg/mL) | 100% | 6.87 | 99% | 10 fold | CC(=O)Nc1cc(Nc2ncc(NC(=O)c3cc(NC(=O)c4cccc(C(F)(F)F)c4)ccc3C)cn2)ccc1OC(=O)CN1CCN(C)CC1 [Compound 5a] | Analyte Peak Area [7]: BLOD; time for conversion to parent 4 in human plasma ([7]; human, 1 µM): less than 2 h
22 µM (≈ 13.7 µg/mL) | 100% | 7.04 | 98% | 7 fold | CC(=O)Nc1cc(Nc2ncc(NC(=O)c3cc(NC(=O)c4cccc(C(F)(F)F)c4)ccc3C)cn2)ccc1OC(=O)CN [Compound 5b, 2-Acetamido-4-((5-(2-methyl-5-(3-(trifluoromethyl)benzamido)benzamido)pyrimidin-2-yl)amino)phenyl glycinate] | increase of solubility compared to parent 4 [4]: thrice
4.6 µM (≈ 2.99 µg/mL) | 100% | 6.91 | – | 9 fold | CC(=O)Nc1cc(Nc2ncc(NC(=O)c3cc(NC(=O)c4cccc(C(F)(F)F)c4)ccc3C)cn2)ccc1OC(=O)CN(C)C [Compound 5c, 2-Acetamido-4-((5-(2-methyl-5-(3-(trifluoromethyl)benzamido)benzamido)pyrimidin-2-yl)amino)phenyl dimethylglycinate] | –
